# Measured values taken from patent publication US8748470B2, “Methods for treating ovarian cancer by inhibiting fatty acid binding proteins” (The University of Chicago, priority 2011, dated 2014).
# What was measured:
# [1] = system: ID8 mouse ovarian cancer cells; assay: tumor burden in mice after bursal injection of ID8 cells and treatment with FABP4 inhibitor; format: in vivo; conditions: 20 mg/kg body weight daily by oral gavage from day 60 after ID8 injection, assessed after 30 d
# Description: (a) Immune competent mice were injected with 1 million ID8 cells under the ovarian bursa. […] Number of metastases (a) and metastatic tumor weight (b) were assessed 30 d after the FABP4 inhibitor or control vehicle treatment.
# [2] = system: human ovarian cancer cells (HeyA8 or SKOV3ip1); assay: ex vivo ovarian cancer cell proliferation on sections of human omentum; format: cell-based; conditions: HeyA8 or SKOV3ip1, fluorescently labeled, 24 h
# Source text: Representative images (left) and quantified fluorescence (right) were shown. Bars report means±s.e.m.
# SKOV3ip1 cells [3] = assay: lipid accumulation in cancer cells cocultured with primary human omental adipocytes (Bodipy 493/503, confocal microscopy); format: cell-based
# Source text: (§1) FIGS. 11a-11g FABP4 has a key role in the interaction of cancer cells with adipocytes. (a) Representative immunohistochemical staining (bottom) for FABP4 in serial sections of primary ovarian tumor and corresponding omental metastatic tissues from a subject with stage IIIC advanced serous ovarian cancer (as classified by the International Federation of Gynecology and Obstetrics). Hematoxylin and eosin (H & E) staining is in the top images. The graph on the right is a summary of FABP4 protein expression scoring in 20 subjects, as assessed by immunohistochemistry. The scoring (0, 1 or 2, corresponding to negative, weak or strong) was performed in different tissue compartments: Benign ovarian stroma (A), primary ovarian cancer in the ovary (B), ovarian cancer metastatic to the omentum (C), interface of ovarian cancer cells into adipocytes (Adi) (D), and adipocytes (E). Error bars, ±s.e.m. […]
# Lipid visualization. […] Adipocytes and extracellular fatty acids were washed away with HBSS containing 0.2% fatty-acid free BSA and total fluorescence per well in triplicate was quantified. […] Quantification of Bodipy neutral lipid dye was performed using Imaris software (Bitplane Inc., South Windor, Conn.) and normalized to number of nuclei in field (5-10 fields/condition). […]
# SKOV3ip1 cells [4] = assay: invasion assay of SKOV3ip1 cells toward adipocytes; format: cell-based, human; conditions: inhibitor added to coculture; used at 10 μM; 24 h
# Source text: as §1, with “±s.e.m. (b) Confocal microscopy images of lipid accumulation in SKOV3ip1 cells cocultured with or without primary human omental adipocytes and a FABP4 inhibitor (nuclear counterstaining). One of two experiments, conducted with different human subject samples, is shown. (c) Invasion assay of SKOV3ip1 cells toward adipocytes in the absence or presence of the FABP4 inhibitor HTS01037. Bars report mean fold change±s.e.m. One of two experiments, using two different human subject samples, is shown.” for “±s.e.m.”
# HSL phosphorylation = assay: immunoblot for phosphorylated hormone sensitive lipase (p-HSL) in adipocyte/SKOV3ip1 coculture; format: cell-based, human; conditions: pretreated with 10 μM propranolol
# Source text: FIGS. 9a-9d Cocultivation of ovarian cancer cells with adipocytes activates lipolysis in adipocytes and β-oxidation in cancer cells. (a) Quantitative RT-PCR for perilipin 1 in primary human omental adipocytes (Adi) cultured with and without SKOV3ip1 ovarian cancer (OvCa) cells. Bars report mean fold change relative to glyceraldehyde 3-phosphate dehydrogenase expression±s.e.m. (b) Immunoblot for phosphorylated hormone sensitive lipase (p-HSL) and total HSL in SKOV3ip1 cells cocultured with (+) and without (−) adipocytes and pretreated with 10 μM propranolol, a β-adrenergic receptor antagonist. (c) SKOV3ip1 cells were cocultured (1 h) with adipocytes, treated with isoproterenol (positive control) or 14-22 amide (negative control) and protein kinase A (PKA) activity was assessed. (d) β-oxidation in MONTY-1 OvCa cells cocultured with primary human adipocytes (L-carnitine, positive control; etomoxir, negative control). The graph reports the average oxidation rate at the indicated times±s.e.m.
# Immunoblotting. In coculture experiments, primary human omental adipocytes were added to CMFDA-labeled SKOV3ip1 cells in SFM (1:5, PCV adipocytes:SFM) and incubated for 24 h. The adipocytes were removed and the SKOV3ip1 cells were subjected to FACS sorting to remove any remaining adipocytes in experiments involving FABP4 expression. […]
# FABP4 mRNA = FABP4 mRNA expression in ID8 cells transfected with shRNA (quantitative RT-PCR); format: cell-based, mouse; conditions: ID8 cells transfected with FABP4 shRNA vs vector control
# Source text: FIGS. 16a-16d Effects of FABP4 downregulation. (a) FABP4 mRNA expression in ID8 mouse ovarian cancer cells transfected with FABP4 small hairpin RNA (shRNA) (F4) or vector control shRNA (VC) in the presence (+) or absence (−) of mouse adipocytes. Bars report means±s.e.m. (b) Tumor burden in mice 10 weeks after intraperitoneal injection of ID8 mouse ovarian cancer cells transfected with 5 million shRNA (F4 or VC). (c) Metastatic tumor burden in mice 10 weeks after intraperitoneal injection of ID8 mouse ovarian cancer cells transfected with 5 million shRNA (F4 or VC). […] FABP4 mRNA expression was measured by quantitiative RT-PCR.
# Quantitative real-time PCR. […] Real-time quantitative reverse transcription-PCR (RT-PCR) was performed as described (Sawada et al., 2008) using the following probes (Applied Biosystems, Carlsbad, Calif.): acyl-coenzyme A oxidase (ACOX1, Hs01074241_m1), CXCR1 (IL-8 receptor, Hs00174146 ml), carnitine palmitoyltransferase 1a (CPT1a, Hs00912681_m1), fatty acid binding protein 4 (FABP4; human, Hs00609791_m1; mouse, Mm00445878_m1), perilipin 1 (PLIN1, Hs00160173_m1) and glyceraldehyde-3-phosphate dehydrogenase (GAPDH; human, Hs00266705_g1; mouse, Mm99999915_g1). Relative mRNA gene expression was calculated using the 2^−ΔΔCt method as described (Shell et al., 2007). […]
# [5] = system: ID8 mouse ovarian cancer cells; assay: tumor burden in mice after intraperitoneal injection of shRNA-transfected ID8 cells; format: in vivo; conditions: 10 weeks after intraperitoneal injection of shRNA-transfected ID8 cells, vs control group
# Source text: FIGS. 16a-16d Effects of FABP4 downregulation. (a) FABP4 mRNA expression in ID8 mouse ovarian cancer cells transfected with FABP4 small hairpin RNA (shRNA) (F4) or vector control shRNA (VC) in the presence (+) or absence (−) of mouse adipocytes. Bars report means±s.e.m. (b) Tumor burden in mice 10 weeks after intraperitoneal injection of ID8 mouse ovarian cancer cells transfected with 5 million shRNA (F4 or VC). (c) Metastatic tumor burden in mice 10 weeks after intraperitoneal injection of ID8 mouse ovarian cancer cells transfected with 5 million shRNA (F4 or VC). (d) mRNA expression of FABP4 in tumors collected 10 weeks after intraperitonel injection of ID 8 mouse ovarian cancer cells transferred with FABP4 shRNA or vector control shRNA. FABP4 mRNA expression was measured by quantitiative RT-PCR.
# Animal experiments. All animal experiments were approved by the Institutional Animal Care and Use Committee, University of Chicago. Xenograft animal experiments and in vivo homing were conducted in female immune-compromised athymic nude mice. […] Tumor volumes were measured as described (Zou et al., 2007) over 24 d and tumor weight determined at the end of the experiment. […] Metastatic tumor weight and number of metastatic nodules were determined at the end of each experiment and tumor tissue fixed in 10% formalin.
molecule,measurement,setting,value
"CCc1c(-c2ccccc2)c(-c2ccccc2)nn1-c1ccccc1-c1cccc(OCC(=O)O)c1 [BMS309403, ((2′-(5-ethyl-3,4-diphenyl-1H-pyrazol-1-yl)(1,1′-biphenyl)-3-yl)oxy)-acetic acid]","tumor burden (number of metastases, metastatic tumor weight)",[1],significantly reduced
same,human ovarian cancer cell proliferation on sections of human omentum,[2],reduces human ovarian cancer cell proliferation
"COC(=O)c1sc(-c2cccs2)cc1NC(=O)C=CC(=O)O [HTS01037, 4-{[2-(methoxycarbonyl)-5-(2-thienyl)-3-thienyl]amino}-4-oxo-2-butenoic acid]",lipid uptake in SKOV3ip1 cells cocultured with human omentum adipocytes,"SKOV3ip1 cells [3]; 36 h coculture, Bodipy 493/503",prevents lipid uptake
same,lipid accumulation in the cancer cells,"SKOV3ip1 cells [3]; inhibitor added to coculture of ovarian cancer cells and adipocytes, used at 10 μM",drastically reduced
same,adipocyte-mediated invasion,SKOV3ip1 cells [4],drastically reduced
CC(C)NCC(O)COc1cccc2ccccc12 (centres unmarked) [propranolol],ovarian cancer cell-induced HSL activation,HSL phosphorylation,partially reversed
FABP4 shRNA: FABP4 small hairpin RNA (shRNA); comprises a nucleic acid sequence of SEQ ID NO: 1 (CCGGCTGGATGGAAATTTGCATCAACTCGAGTTGATGCAAATTTCCATCCAGTTTTTG),mRNA expression level of FABP4,FABP4 mRNA,decreased
same,"tumor burden, intraperitoneal model",[5],substantially lowered
